Reference: patent publication US20200390722A1, “COMPOSITIONS AND METHODS FOR THE REMOVAL OF EAR WAX” (Specialty Drug and Device, LLC, priority 2016, published 2020)

Assays:
[1] = Test-tube comparison of SFA (F6H8) and common remedies on about 100 mg human ear wax (Example 2); parameters: key to Effects on Ear Wax (Cerumen) Samples: NC, No Change; BP, Bubbles Produced; SG, Softening; FD, Fully Dispersed; details: for Effects on Ear Wax (Cerumen) Samples: Human; for Visible changes to ear wax samples (in words): human, 30 seconds with gentle agitation
Experimental: (§1) Approximately 100 mg of human ear wax was weighed into each of four small test tubes and numbered 1-4. In a second series, approximately 100 mg of animal cerumen from dogs was placed into four different test tubes and numbered 5-8. About 1 ml of the following material was then added to the respective dishes as follows: (1) to tubes #1 and 5, F6H8; (2) to tubes #2 and 6, hydrogen peroxide, 3%; (3) to tubes #3 and 7, carbamide peroxide, 6.5% (Murine Earwax Removal Drops); and (4) to tubes #4 and 8, sodium bicarbonate, 5% (prepared by dissolved 5 grams of sodium bicarbonate in 100 ml of distilled water. Results of these studies are presented in Table 1, below.

[2] = Test-tube comparison of SFA (F6H8) and common remedies on about 100 mg dog cerumen (Example 2); parameters: key to Effects on Ear Wax (Cerumen) Samples: NC, No Change; BP, Bubbles Produced; SG, Softening; FD, Fully Dispersed; details: for Effects on Ear Wax (Cerumen) Samples: Dog; for Visible changes to ear wax samples (in words): dog, 30 seconds with gentle agitation
Experimental: as §1

accumulation of ear wax [3] = test: Prophylaxis to prevent or retard accumulation of ear wax, one human (Example 4); type: in vivo
Experimental: (§2) The effectiveness of F6H8 as a prophylaxis to prevent or retard accumulation of ear wax was evaluated in one human and one dog. The ear canal of the person and the canine were cleaned thoroughly prior to the evaluation of prophylaxis with SFA. Then, on a regular basis (five of seven days on average), 20-25 ul of F6H8 were applied to a cotton bud and the right ear only of each subjects was gently swabbed for about 15 seconds. In each instance, the contralateral ear served as a control in this study. […] Visual observation was confirmed by using a clean cotton bud to swab each ear of both subjects for 10-15 seconds.

accumulation of ear wax [4] = test: Prophylaxis to prevent or retard accumulation of ear wax, one dog (Example 4); type: in vivo
Experimental: as §2

[5] = Cotton bud laden with dog ear wax swirled through about 1 ml F6H8 (initial studies, Example 1); details: dog cerumen on cotton bud swirled or shaken in F6H8; hair particles etc. not dissolved
Text: (§3) In these studies, which are reflected below in Table 1, samples of ear wax were collected on cotton buds from animals or humans. A portion of each sample was placed into a small tube containing an SFA (F6H8) and gently shaken.
(§4) The invention is based in substantial part upon initial studies that provided surprising results. A small quantity of F6H8 semi-fluorinated alkane was placed into each of 5 test tubes. Samples of cerumen from animal or human ears were collected on cotton buds. Sufficient ear wax was collected that quantities of the material were visible on cotton buds used to harvest the materials. Separate cotton buds were used to collect cerumen from four dogs and two humans. In a step-wise manner, one cotton bud, laden with ear wax, was gently swirled through a single test tube containing an aliquot of F6H8 SFA. The study was repeated three times for cotton buds with ear wax from dogs and a second series of two tests, as previously described, were carried-out with cotton buds laden with human cerumen. […] Importantly, in the study the cerumen was dissolved by the SFA but the other matter (hair particles, etc.) were not dissolved. […] Such products include MURINE® Ear Drops, DEBROX® Earwax Removal, Flents Earwax Remover, and CERUMENEX® and also includes patents for compositions containing glycerin, glycols, peroxide plus urea and cyclodextrin containing compositions. […]

[6] = Cotton bud laden with human ear wax swirled through about 1 ml F6H8 (initial studies, Example 1); details: human cerumen on cotton bud swirled or shaken in F6H8; hair particles etc. not dissolved
Text: as §3, §4

[7] = 30 Seconds, about 1 ml on approx. 100 mg ear wax, gentle agitation
[8] = 30 Seconds, about 1 ml on approx. 100 mg cerumen, gentle agitation
[9] = 20-25 ul on cotton bud, about five of seven days, end of three month trial
[10] = swab 10-15 seconds at end of three month trial

| Structure (SMILES) | Effects on Ear Wax (Cerumen) Samples ([1]; 5 Minutes) | Effects on Ear Wax (Cerumen) Samples ([1]; 15 Minutes) | Effects on Ear Wax (Cerumen) Samples [1, 7] | Visible changes to ear wax samples (in words) [1] | Effects on Ear Wax (Cerumen) Samples ([2]; 5 Minutes) | Effects on Ear Wax (Cerumen) Samples ([2]; 15 Minutes) | Effects on Ear Wax (Cerumen) Samples [2, 8] | Visible changes to ear wax samples (in words) [2] | Visual observation of treated right ear vs untreated contralateral ear (accumulation of ear wax [3]; [9]) | Ear wax collected by clean cotton bud from treated right ear vs untreated left ear (accumulation of ear wax [3]; [10]) | Visual observation of treated right ear vs untreated contralateral ear (accumulation of ear wax [4]; [9]) | Ear wax collected by clean cotton bud from treated right ear vs untreated left ear (accumulation of ear wax [4]; [10]) | Dissolution of cerumen from the ear wax sample (in words) [5] | Dissolution of cerumen from the ear wax sample (in words) [6] |
| --- | --- | --- | --- | --- | --- | --- | --- | --- | --- | --- | --- | --- | --- | --- |
| O=C([O-])O.[Na+] [Sodium Bicarbinate, 5%, sodium bicarbonate] | NC | NC | NC | failed to produce visible changes | NC | NC | NC | failed to produce visible changes |  |  |  |  |  |  |
| OO [Hydrogen Peroxide, 3%, hydrogen peroxide] | BP | SG and BP, | NC | failed to produce visible changes | BP | SG and BP, | NC | failed to produce visible changes |  |  |  |  |  |  |
| CCCCCCCCC(F)(F)C(F)(F)C(F)(F)C(F)(F)C(F)(F)C(F)(F)F [SFA (F6H8)] | FD | FD | FD |  | FD | FD | FD |  | visibly cleaner and contained less ear wax and associated hair and other debris | collected less ear wax | visibly cleaner and contained less ear wax and associated hair and other debris | collected less ear wax | dissolved completely | dissolved completely |
